Assay results published in PubChem BioAssay AID2060607 (Molecular Pharmacology Branch, DTP, NCI, 2025).

System: 876862-298-R-J1-PDC complex spheroids, viability % test/control
Assay: Anticancer human tumor 876862-298-R-J1-PDC patient-derived endometrial carcinoma cell line growth inhibition [CLK]
Details: for IC50: curve of first compound; for viability, T/C: stronger effect = lower value
Outline: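 Patient-derived tumor cells grown as complex spheroids with HUVEC endothelial cells and mesenchymal stem cells, treated with drug combinations. Concentrations descend in half-log steps from near clinical Cmax, or from 10 microM if Cmax unknown.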
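Also: spheroids exposed to drugs for 7 days before readout.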
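For viability, T/C in this document: 100% = DMSO vehicle control wells.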

## CC(C)CC(NC(=O)C(Cc1ccccc1)NC(=O)c1cnccn1)B(O)O (centres undefined) + CN1CCN(c2cc(C(=O)Nc3cc4cc(-c5cnn(C)c5)ccc4cn3)ccn2)CC1
Second compound 0.0316 µM
  IC50: 1.77 nM
Second compound 0.1 µM
  IC50: 0.97 nM
Second compound 0.316 µM
  IC50: < 0.949 nM
Second compound 1 µM
  IC50: < 0.949 nM
Second compound 3.16 µM
  IC50: < 0.949 nM
Second compound 10 µM
  IC50: < 0.949 nM
Second compound 0.0316 µM, first compound 0.000949 µM
  viability, T/C: 92.9%
Second compound 0.0316 µM, first compound 0.003 µM
  viability, T/C: 13.8%
Second compound 0.0316 µM, first compound 0.00949 µM
  viability, T/C: 1.49%
Second compound 0.0316 µM, first compound 0.03 µM
  viability, T/C: 0.54%
Second compound 0.0316 µM, first compound 0.0949 µM
  viability, T/C: 0.87%
Second compound 0.0316 µM, first compound 0.3 µM
  viability, T/C: 0.26%
Second compound 0.1 µM, first compound 0.000949 µM
  viability, T/C: 50.9%
Second compound 0.1 µM, first compound 0.003 µM
  viability, T/C: 9.76%
Second compound 0.1 µM, first compound 0.00949 µM
  viability, T/C: 0.72%
Second compound 0.1 µM, first compound 0.03 µM
  viability, T/C: 0.44%
Second compound 0.1 µM, first compound 0.0949 µM
  viability, T/C: 0.43%
Second compound 0.1 µM, first compound 0.3 µM
  viability, T/C: 0.26%
Second compound 0.316 µM, first compound 0.000949 µM
  viability, T/C: 2.77%
Second compound 0.316 µM, first compound 0.003 µM
  viability, T/C: 0.46%
Second compound 0.316 µM, first compound 0.00949 µM
  viability, T/C: 1.45%
Second compound 0.316 µM, first compound 0.03 µM
  viability, T/C: 0.39%
Second compound 0.316 µM, first compound 0.0949 µM
  viability, T/C: 0.5%
Second compound 0.316 µM, first compound 0.3 µM
  viability, T/C: 0.26%
Second compound 1 µM, first compound 0.000949 µM
  viability, T/C: 0.6%
Second compound 1 µM, first compound 0.003 µM
  viability, T/C: 0.27%
Second compound 1 µM, first compound 0.00949 µM
  viability, T/C: 0.45%
Second compound 1 µM, first compound 0.03 µM
  viability, T/C: 0.53%
Second compound 1 µM, first compound 0.0949 µM
  viability, T/C: 0.45%
Second compound 1 µM, first compound 0.3 µM
  viability, T/C: 0.57%
Second compound 3.16 µM, first compound 0.000949 µM
  viability, T/C: 1.3%
Second compound 3.16 µM, first compound 0.003 µM
  viability, T/C: 0.5%
Second compound 3.16 µM, first compound 0.00949 µM
  viability, T/C: 0.68%
Second compound 3.16 µM, first compound 0.03 µM
  viability, T/C: 0.95%
Second compound 3.16 µM, first compound 0.0949 µM
  viability, T/C: 0.69%
Second compound 3.16 µM, first compound 0.3 µM
  viability, T/C: 0.43%
Second compound 10 µM, first compound 0.000949 µM
  viability, T/C: 0.67%
Second compound 10 µM, first compound 0.003 µM
  viability, T/C: 0.32%
Second compound 10 µM, first compound 0.00949 µM
  viability, T/C: 1.9%
Second compound 10 µM, first compound 0.03 µM
  viability, T/C: 0.44%
Second compound 10 µM, first compound 0.0949 µM
  viability, T/C: 0.42%
Second compound 10 µM, first compound 0.3 µM
  viability, T/C: 0.27%

## Cn1ncnc1[C@H]1c2n[nH]c(=O)c3cc(F)cc(c23)N[C@@H]1c1ccc(F)cc1 + CN1CCN(c2cc(C(=O)Nc3cc4cc(-c5cnn(C)c5)ccc4cn3)ccn2)CC1
Second compound 0.0316 µM
  IC50: > 100 nM
Second compound 0.1 µM
  IC50: < 0.316 nM
Second compound 0.316 µM
  IC50: < 0.316 nM
Second compound 1 µM
  IC50: < 0.316 nM
Second compound 3.16 µM
  IC50: < 0.316 nM
Second compound 10 µM
  IC50: < 0.316 nM
Second compound 0.0316 µM, first compound 0.000316 µM
  viability, T/C: 94.8%
Second compound 0.0316 µM, first compound 0.001 µM
  viability, T/C: 81.4%
Second compound 0.0316 µM, first compound 0.00316 µM
  viability, T/C: 89.7%
Second compound 0.0316 µM, first compound 0.01 µM
  viability, T/C: 87%
Second compound 0.0316 µM, first compound 0.0316 µM
  viability, T/C: 99.8%
Second compound 0.0316 µM, first compound 0.1 µM
  viability, T/C: 81.6%
Second compound 0.1 µM, first compound 0.000316 µM
  viability, T/C: 44.7%
Second compound 0.1 µM, first compound 0.001 µM
  viability, T/C: 48.4%
Second compound 0.1 µM, first compound 0.00316 µM
  viability, T/C: 44.7%
Second compound 0.1 µM, first compound 0.01 µM
  viability, T/C: 48%
Second compound 0.1 µM, first compound 0.0316 µM
  viability, T/C: 43.2%
Second compound 0.1 µM, first compound 0.1 µM
  viability, T/C: 37.9%
Second compound 0.316 µM, first compound 0.000316 µM
  viability, T/C: 2.64%
Second compound 0.316 µM, first compound 0.001 µM
  viability, T/C: 2.72%
Second compound 0.316 µM, first compound 0.00316 µM
  viability, T/C: 2.87%
Second compound 0.316 µM, first compound 0.01 µM
  viability, T/C: 3.16%
Second compound 0.316 µM, first compound 0.0316 µM
  viability, T/C: 2.95%
Second compound 0.316 µM, first compound 0.1 µM
  viability, T/C: 2.25%
Second compound 1 µM, first compound 0.000316 µM
  viability, T/C: 0.47%
Second compound 1 µM, first compound 0.001 µM
  viability, T/C: 0.71%
Second compound 1 µM, first compound 0.00316 µM
  viability, T/C: 1%
Second compound 1 µM, first compound 0.01 µM
  viability, T/C: 0.8%
Second compound 1 µM, first compound 0.0316 µM
  viability, T/C: 0.52%
Second compound 1 µM, first compound 0.1 µM
  viability, T/C: 0.74%
Second compound 3.16 µM, first compound 0.000316 µM
  viability, T/C: 0.96%
Second compound 3.16 µM, first compound 0.001 µM
  viability, T/C: 0.86%
Second compound 3.16 µM, first compound 0.00316 µM
  viability, T/C: 0.88%
Second compound 3.16 µM, first compound 0.01 µM
  viability, T/C: 0.88%
Second compound 3.16 µM, first compound 0.0316 µM
  viability, T/C: 1.01%
Second compound 3.16 µM, first compound 0.1 µM
  viability, T/C: 0.64%
Second compound 10 µM, first compound 0.000316 µM
  viability, T/C: 0.56%
Second compound 10 µM, first compound 0.001 µM
  viability, T/C: 0.62%
Second compound 10 µM, first compound 0.00316 µM
  viability, T/C: 0.88%
Second compound 10 µM, first compound 0.01 µM
  viability, T/C: 0.76%
Second compound 10 µM, first compound 0.0316 µM
  viability, T/C: 0.63%
Second compound 10 µM, first compound 0.1 µM
  viability, T/C: 0.56%
